Test results reported in patent publication US20030027243A1, “Antifungal compounds and methods of use” (Anadys Pharmaceuticals, Inc., priority 2000, published 2003).

Key:
Test in all cases: Broth microdilution antifungal susceptibility test (NCCLS M27A based), MIC
Assay type in all cases: cell-based
Settings in all cases: quality control range for control compounds, 35° C., 48 hours
[1] = tested on: Candida albicans, e.g., ATCC 10231
Description: (§1) Non-limiting examples of such procedures test the candidate inhibitor compounds for antifungal activity against a panel of three strains: C. albicans, S. cerevisiae , and A. nidulans. One such procedure is based on the NCCLS M27A method (The National Committee for Clinical Laboratory Standards, Reference Method for Broth Microdilution Antifungal Susceptibility Testing of Yeasts; approved standard, 1997) to measure minimum inhibitory concentrations (MICs) and minimum fungicidal concentrations (MFCs). An overview of this of this protocol follows.
(§2) 3. RPMI-1640: 10.4 g powdered media (Sigma R-6504, w/ glutamine & w/o bicarbonate); 2.0 g NaHCO3 (Sigma S-6297); 34.53 g MOPS buffer (Sigma M-6270). Dissolve powdered media and NaHCO3 in 900 ml distilled water. Add MOPS and stir until dissolved. Adjust pH to 7.0 using 1N NaOH. Bring final volume to 1 liter, filter sterilize, and store at 4° C.
(§3) 1. Yeasts: Yeasts (Saccharonyces cerevisiae and Candida albicans) are cultured on Sabouraud dextrose agar (SDA) plates in a 35° C. incubator. Strains on SDA plates are stored at 4° C. and used as working stock cultures. Working stock plates are prepared once a month from frozen stocks of cells. Inoculum for susceptibility testing is prepared from fresh 24 hour cultures. 5-10 colonies are scraped from the plate and suspended in three milliliters of sterile 0.85% saline (8.5 g/liter NaCl). The cell density of the solution is determined by measuring the absorbance in a spectrophotometer (Shimadzu UV-1201S UV-VIS Spectrophotometer) set at 600 nm. An absorbance value between 0.1 and 0.4 is required for an accurate reading. […]
(§4) Stock solutions of control compounds (1.6 mg/ml, Amphotericin B or Itraconazole) are initially diluted in medium to a concentration of 32 ug/ml while stock solutions of test compounds (typically 12.8 mg/ml) are diluted to 256 ug/ml. […] If a stock solution of a test compound is not at 12.8 mg/ml, the appropriate dilution must be calculated. […]

[2] = tested on: Saccharomyces cerevisiae, e.g., CTY552
Description: as §1, §2, §3, §4

[3] = tested on: Aspergillus nidulans, e.g., NRRL 194 (ATCC 38163)
Description: as §1
3. RPMI-1640: 10.4 g powdered media (Sigma R-6504, w/ glutamine & w/o bicarbonate); 2.0 g NaHCO3 (Sigma S-6297); 34.53 g MOPS buffer (Sigma M-6270). Dissolve powdered media and NaHCO3 in 900 ml distilled water. Add MOPS and stir until dissolved. Adjust pH to 7.0 using 1N NaOH. […]
2. […] The turbidity of the solution is determined by measuring the absorbance in a spectrophotometer (Shimadzu UV-1201S UV-VIS Spectrophotometer) set at 600 nm. An absorbance value between 0.1 and 0.4 is required for an accurate reading. […]
as §4

Row | Compound | Acceptable MIC range values [1] [µg/mL] | Acceptable MIC range values [2] [µg/mL] | Acceptable MIC range values [3] [µg/mL]
1 | C[C@@H]1[C@H](O)[C@@H](C)/C=C/C=C/C=C/C=C/C=C/C=C/C=C/[C@H](O[C@@H]2O[C@H](C)[C@@H](O)[C@H](N)[C@@H]2O)C[C@@H]2O[C@](O)(C[C@@H](O)C[C@@H](O)[C@H](O)CC[C@@H](O)C[C@@H](O)CC(=O)O[C@H]1C)C[C@H](O)[C@H]2C(=O)O [Am B, Amphotericin B] | 0.25 to 1.0 | 0.25 to 1.0 | 0.5 to 2.0
2 | CCC(C)n1ncn(-c2ccc(N3CCN(c4ccc(OCC5COC(Cn6cncn6)(c6ccc(Cl)cc6Cl)O5)cc4)CC3)cc2)c1=O (centres unmarked) [Itraconazole] | 0.25 to 1.0 |  | 0.25 to 1.0
